Assay results published in patent US9139581B2 (PORTOLA PHARMACEUTICALS, INC., priority 2008, dated 2015).
pIC50: −log10 of the molar value.

Target: T1, full length active recombinant SYK enzyme (Homo sapiens, UniProt P43405)
T1 construct: full length active recombinant SYK enzyme (Millipore, Calif.); purchased Millipore
Assay: Inhibition of Syk tyrosine phosphorylation activity (LANCE TR-FRET)
Type: biochemical
Details: Table 3; 1 nM SYK, 100 μM ATP; read-out: Syk IC50 code
Procedure: The in vitro and in vivo human syk activities of the inventive compounds can be determined by various procedures known in the art, such as a test for their ability to inhibit the activity of human plasma syk. […] Inhibition of Syk Tyrosine Phosphorylation Activity Potency of candidate molecules for inhibiting syk tyrosine phosphorylation activity is assessed by measuring the ability of a test compound to inhibit syk-mediated tyrosine phosphorylation of a syk-specific substrate. SYK tyrosine phosphorylation activity is measured using the LANCETM Technology developed by Perkin Elmer Life and Analytical Sciences (Boston, Mass.). LANCETM refers to homogeneous time resolved fluorometry applications using techniques such as time-resolved fluorescence resonance energy transfer assay (TR-FRET) (see generally for procedures in Perkin Elmer Application Note-How to Optimize a Tyrosine Kinase Assay Using Time Resolved Fluorescence-Based LANCE Detection, wwww.perkinelmer.com/lifesciences). The assay principle involves detection of a phosphorylated substrate using energy transfer from a phosphospecific europium-labeled antibody to streptavidin-allophycocyanin as an acceptor. To test the ability of candidate molecules to inhibit SYK tyrosine phosphorylation activity, molecules are reconstituted in 30% DMSO and serially diluted 1:3 with the final dilution containing DMSO in the absence of the candidate molecule. The final DMSO concentration in the assay is 3%. Kinase assays are performed as a two part reaction. The first reaction is a kinase reaction and which comprises of a candidate molecule, full length active recombinant SYK enzyme (Millipore, Calif.) and biotin-labeled SYK-specific substrate biotin-[…]-OH. The second reaction involves termination of the kinase reaction and the simultaneous addition of the detection reagents-europium-labeled anti-phosphotyrosine reagent (Eu-W1024-PY100, Perkin Elmer, Boston, Mass.) and Streptavidin-Allophycocyanin detection reagent (SA-APC, Prozyme, Calif.). The kinase reaction is performed in a black U-bottom 96-well microtitre plate. […] The reaction is allowed to proceed for 1 hour at room temperature. […] The detection reagents are added to the reaction mixture at the following dilutions-1:500 for Eu-W1024-PY100 and 1:250 for SA-APC. The kinase reaction is terminated by the addition of 50 μL quench buffer containing the detection reagents. The detection is allowed to proceed for 1 hr at room temperature. Detection of the phosphorlated substrate in the absence and presence of inhibitors is measured in the TR-FRET instrument, Analyst HT ([…], Sunnyvale, Calif.) and the condition for measurements are set up using CriterionHost Release 2.0 ([…], Sunnyvale, Calif.). […] IC50s were derived by non-linear regression analysis.

| pIC50 | Compound |
| --- | --- |
| < 6.00 | 6-(5-fluoro-4-(3-oxopiperazin-1-yl)pyrimidin-2-ylamino)-3,4-dihydroquinolin-2(1H)-one [Example 123] |
| 7.00 to 8.00 | CNc1nc(Nc2ccc3cn[nH]c3c2)nc2[nH]cc(-c3ccncc3)c12 [Example 1, N2-(1H-indazol-6-yl)-N4-methyl-5-(pyridin-4-yl)-7H-pyrrolo[2,3-d]pyrimidine-2,4-diamine] |
| 6.00 to 7.00 | CNc1nc(Nc2ccc(N3CCN(C(C)=O)CC3)cc2)nc2[nH]cc(-c3ccncc3)c12 [Example 2, 1-(4-(4-(4-(methylamino)-5-(pyridin-4-yl)-7H-pyrrolo[2,3-d]pyrimidin-2-ylamino)phenyl)piperazin-1-yl)ethanone] |
| 7.00 to 8.00 | CNc1nc(Nc2ccc3cn[nH]c3c2)nc2[nH]cc(-c3cccnc3)c12 [Example 3, N2-(1H-indazol-6-yl)-N4-methyl-5-(pyridin-3-yl)-7H-pyrrolo[2,3-d]pyrimidine-2,4-diamine] |
| 7.00 to 8.00 | CC(=O)N1CCN(c2ccc(Nc3nc(NC4CC4)c4c(-c5ccncc5)c[nH]c4n3)cc2)CC1 [Example 4, 1-(4-(4-(4-(cyclopropylamino)-5-(pyridin-4-yl)-7H-pyrrolo[2,3-d]pyrimidin-2-ylamino)phenyl)piperazin-1-yl)ethanone] |
| < 6.00 | NC(=O)c1cnc(-[n+]2ccc(-c3ccc(N)cc3)cc2)nc1NC1CC1 [Example 5, 4-(4-aminophenyl)-1-(5-carbamoyl-4-(cyclopropylamino)pyrimidin-2-yl)pyridinium] |
| < 6.00 | NC(=O)c1cnc(-[n+]2ccn(-c3ccc(N)cc3)c2)nc1NC1CC1 [Example 6, 1-(4-aminophenyl)-3-(5-carbamoyl-4-(cyclopropylamino)pyrimidin-2-yl)-1H-imidazol-3-ium] |
| 6.00 to 7.00 | NC(=O)c1cnc(-n2ncc3ccc(N)c(Cl)c32)nc1NC1CC1 [Example 7, 2-(6-amino-7-chloro-1H-indazol-1-yl)-4-(cyclopropylamino)pyrimidine-5-carboxamide] |
| < 6.00 | CC(=O)N(C)c1ccc(Nc2ncc(F)c(N3CCC(CNC(=O)OC(C)(C)C)CC3)n2)cc1 [Example 28, tert-butyl (1-(5-fluoro-2-(4-(N-methylacetamido)phenylamino)pyrimidin-4-yl)piperidin-4-yl)methylcarbamate] |

Same assay, conditions: Table 4; 1 nM SYK, 100 μM ATP; read-out: syk IC50

| pIC50 | Compound |
| --- | --- |
| < 6.00 | CC(=O)N1CCN(c2ccc(Nc3ncc(C(N)=O)c(N4CCCCC4CCO)n3)cc2)CC1 (centres unmarked) [2-(4-(4-acetylpiperazin-1-yl)phenylamino)-4-(2-(2-hydroxyethyl)piperidin-1-yl)pyrimidine-5-carboxamide] |
| 6.00 to 7.00 | CC(=O)N1CCN(c2ccc(Nc3ncc(C(N)=O)c(N4CCCC(CO)C4)n3)cc2)CC1 (centres unmarked) [2-(4-(4-acetylpiperazin-1-yl)phenylamino)-4-(3-(hydroxymethyl)piperidin-1-yl)pyrimidine-5-carboxamide] |
| 6.00 to 7.00 | CC(=O)N1CCN(c2ccc(Nc3ncc(C(N)=O)c(N4CCCN(CCO)CC4)n3)cc2)CC1 [2-(4-(4-acetylpiperazin-1-yl)phenylamino)-4-(4-(2-hydroxyethyl)-1,4-diazepan-1-yl)pyrimidine-5-carboxamide] |
| < 6.00 | NC[C@@H]1CCCN1c1nc(Nc2ccc3cn[nH]c3c2)nc2[nH]ccc12 [(S)-4-(2-(aminomethyl)pyrrolidin-1-yl)-N-(1H-indazol-6-yl)-7H-pyrrolo[2,3-d]pyrimidin-2-amine] |
| 6.00 to 7.00 | N[C@H]1CCCN(c2nc(Nc3ccc4cn[nH]c4c3)nc3[nH]ccc23)C1 [(S)-4-(3-aminopiperidin-1-yl)-N-(1H-indazol-6-yl)-7H-pyrrolo[2,3-d]pyrimidin-2-amine] |
| < 6.00 | O[C@H]1CCN(c2nc(Nc3ccc(N4CCNCC4)cc3)nc3[nH]ccc23)C1 [Example 12, (S)-1-(2-(4-(piperazin-1-yl)phenylamino)-7H-pyrrolo[2,3-d]pyrimidin-4-yl)pyrrolidin-3-ol] |
| < 6.00 | CC(=O)N1CCN(c2ccc(Nc3nc(N4CC[C@H](O)C4)c4cc[nH]c4n3)cc2)CC1 [Example 13, (S)-1-(4-(4-(4-(3-hydroxypyrrolidin-1-yl)-7H-pyrrolo[2,3-d]pyrimidin-2-ylamino)phenyl)piperazin-1-yl)ethanone] |
| 6.00 to 7.00 | COc1cc(Nc2ncc(F)c(N3CCC(CN)CC3)n2)cc(OC)c1OC [Example 17, 4-(4-(aminomethyl)piperidin-1-yl)-5-fluoro-N-(3,4,5-trimethoxyphenyl)pyrimidin-2-amine] |
| < 6.00 | c1cc2c(N3CCCCC3)nc(Nc3ccc(N4CCNCC4)cc3)nc2[nH]1 [Example 19, N-(4-(piperazin-1-yl)phenyl)-4-(piperidin-1-yl)-7H-pyrrolo[2,3-d]pyrimidin-2-amine] |
| < 6.00 | CC(=O)N1CCN(c2ccc(Nc3nc(N4CCCCC4)c4cc[nH]c4n3)cc2)CC1 [Example 20, 1-(4-(4-(4-(piperidin-1-yl)-7H-pyrrolo[2,3-d]pyrimidin-2-ylamino)phenyl)piperazin-1-yl)ethanone] |
| 6.00 to 7.00 | c1cc2c(N3CCCC3)nc(Nc3ccc(N4CCNCC4)cc3)nc2[nH]1 [Example 21, N-(4-(piperazin-1-yl)phenyl)-4-(pyrrolidin-1-yl)-7H-pyrrolo[2,3-d]pyrimidin-2-amine] |
| 6.00 to 7.00 | CC(=O)N1CCN(c2ccc(Nc3nc(N4CCCC4)c4cc[nH]c4n3)cc2)CC1 [Example 22, 1-(4-(4-(4-(pyrrolidin-1-yl)-7H-pyrrolo[2,3-d]pyrimidin-2-ylamino)phenyl)piperazin-1-yl)ethanone] |
| < 6.00 | NC(=O)C1CCN(c2nc(Nc3ccc(N4CCNCC4)cc3)nc3[nH]ccc23)CC1 [Example 23, 1-(2-(4-(piperazin-1-yl)phenylamino)-7H-pyrrolo[2,3-d]pyrimidin-4-yl)piperidine-4-carboxamide] |
| 6.00 to 7.00 | CC(=O)N1CCN(c2ccc(Nc3nc(N4CCC(C(N)=O)CC4)c4cc[nH]c4n3)cc2)CC1 [Example 24, 1-(2-(4-(4-acetylpiperazin-1-yl)phenylamino)-7H-pyrrolo[2,3-d]pyrimidin-4-yl)piperidine-4-carboxamide] |
| < 6.00 | CC(=O)N1CCN(c2ccc(Nc3ncc(C(N)=O)c(N4CCC(CN)CC4)n3)cc2)CC1 [Example 25, 2-(4-(4-acetylpiperazin-1-yl)phenylamino)-4-(4-(aminomethyl)piperidin-1-yl)pyrimidine-5-carboxamide] |
| 6.00 to 7.00 | NC(=O)C1CCCN(c2nc(Nc3ccc4cn[nH]c4c3)ncc2F)C1 (centres unmarked) [Example 26, 1-(2-(1H-indazol-6-ylamino)-5-fluoropyrimidin-4-yl)piperidine-3-carboxamide] |
| < 6.00 | CC(=O)N1CCN(c2ccc(Nc3ncc(F)c(N4CCCC(C(N)=O)C4)n3)cc2)CC1 (centres unmarked) [Example 27, 1-(2-(4-(4-acetylpiperazin-1-yl)phenylamino)-5-fluoropyrimidin-4-yl)piperidine-3-carboxamide] |
| < 6.00 | CC(=O)N(C)c1ccc(Nc2ncc(F)c(N3CCC(CNC(=O)OC(C)(C)C)CC3)n2)cc1 [Example 28, tert-butyl (1-(5-fluoro-2-(4-(N-methylacetamido)phenylamino)pyrimidin-4-yl)piperidin-4-yl)methylcarbamate] |
| < 6.00 | CC(C)(C)OC(=O)NCC1CCN(c2nc(Nc3ccc(C(N)=O)cc3)ncc2F)CC1 [Example 30, tert-butyl (1-(2-(4-carbamoylphenylamino)-5-fluoropyrimidin-4-yl)piperidin-4-yl)methylcarbamate] |
| 7.00 to 8.00 | NCC1CCN(c2nc(Nc3ccc(S(N)(=O)=O)cc3)ncc2F)CC1 [Example 32, 4-(4-(4-(aminomethyl)piperidin-1-yl)-5-fluoropyrimidin-2-ylamino)benzenesulfonamide] |
